Read-outs that look alike come from different tables or passages of the source.
Legend:
Format in all cases: biochemical
Human recombinant HDAC4 = Human recombinant HDAC4 (Homo sapiens (Human), UniProt P56524); test: Test 2: HDAC4 assay (fluorogenic substrate, 5 μM acetyl-Gly-Ala-Lys(ε-trifluoroacetyl)-AMC); conditions: Test 2 (values without asterisk)
Experimental: Test 2: HDAC4 Assay Description
(§1) Control wells with HDAC4 only (positive control) and without HDAC4 (negative control) were included on the microplate. Bovine trypsin (4.5 μl of a 300 nM solution) was added and the plate incubated for additional 15 minutes at room temperature. The plate was placed in a fluorescence microplate reader, and read at an excitation wavelength of 360 nm and an emission wavelength of 450 nm with a 10 nm bandpath. Fluorescence values for all wells containing HDAC4 (positive control and wells with test compound) were corrected by subtracting negative control fluorescence values, and IC50 values were calculated by fitting the dose-response curves to a 4-parameter logistic function.

[1] = target: Human recombinant full length HDAC6 (Homo sapiens (Human), UniProt Q9UBN7); test: Test 4: HDAC6 assay
Experimental: as §1
Test 4: HDAC6 Assay Description
A similar assay procedure as described in Test 2 was used for HDAC6. Human recombinant full length HDAC6 expressed in a baculovirus expression system was purchased from BPS BioSciences (San Diego, Calif., U.S.A.). The substrate used in the […] assay was 5 μM of acetyl-Gly-Ala-Lys(acetyl)-AMC.

[2] = target: Human recombinant full length HDAC1 (Homo sapiens (Human), UniProt Q13547); test: Test 3: HDAC1 assay; conditions: substrate 5 μM acetyl-Gly-Ala-Lys(acetyl)-AMC
Experimental: as §1
Test 3: HDAC1 Assay Description
A similar assay procedure as described in Test 2 was used for HDAC1. Human recombinant full length HDAC1 expressed in a baculovirus expression system was purchased from BPS BioSciences (San Diego, Calif., U.S.A.). The substrate used in the […] assay was 5 μM of acetyl-Gly-Ala-Lys(acetyl)-AMC.

[3] = Test 4, substrate 5 μM acetyl-Gly-Ala-Lys(acetyl)-AMC

Sequence of Human recombinant HDAC4 (P56524 2-1084): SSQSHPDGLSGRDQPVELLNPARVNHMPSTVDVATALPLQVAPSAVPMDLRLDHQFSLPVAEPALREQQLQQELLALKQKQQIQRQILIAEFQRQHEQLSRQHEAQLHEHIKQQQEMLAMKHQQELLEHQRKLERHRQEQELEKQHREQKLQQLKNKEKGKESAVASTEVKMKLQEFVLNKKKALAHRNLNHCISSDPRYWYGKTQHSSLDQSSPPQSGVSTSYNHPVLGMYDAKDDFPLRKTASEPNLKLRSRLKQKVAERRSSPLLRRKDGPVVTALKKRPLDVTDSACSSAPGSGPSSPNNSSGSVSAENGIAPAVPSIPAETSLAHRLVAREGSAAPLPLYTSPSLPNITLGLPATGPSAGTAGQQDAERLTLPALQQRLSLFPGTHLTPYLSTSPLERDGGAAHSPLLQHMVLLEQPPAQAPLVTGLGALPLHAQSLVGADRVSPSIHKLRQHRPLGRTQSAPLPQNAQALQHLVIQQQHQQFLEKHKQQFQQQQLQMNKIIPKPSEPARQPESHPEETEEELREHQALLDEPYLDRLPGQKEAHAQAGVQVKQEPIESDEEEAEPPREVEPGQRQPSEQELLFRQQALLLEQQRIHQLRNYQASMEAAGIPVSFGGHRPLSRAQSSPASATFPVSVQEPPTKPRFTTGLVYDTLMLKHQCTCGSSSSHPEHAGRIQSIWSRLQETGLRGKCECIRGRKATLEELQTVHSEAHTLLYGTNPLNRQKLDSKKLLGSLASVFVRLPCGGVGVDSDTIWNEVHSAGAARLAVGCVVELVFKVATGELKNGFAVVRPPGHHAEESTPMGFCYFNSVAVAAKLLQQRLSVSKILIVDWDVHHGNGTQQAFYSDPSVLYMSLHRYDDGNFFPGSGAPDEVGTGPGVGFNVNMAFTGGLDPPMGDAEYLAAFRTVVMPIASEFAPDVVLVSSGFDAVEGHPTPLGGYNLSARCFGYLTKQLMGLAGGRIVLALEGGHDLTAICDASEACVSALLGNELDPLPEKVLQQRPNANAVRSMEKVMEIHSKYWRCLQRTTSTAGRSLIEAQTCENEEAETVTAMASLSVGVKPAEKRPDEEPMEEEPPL
Sequence of Human recombinant full length HDAC1 (Q13547 whole entry): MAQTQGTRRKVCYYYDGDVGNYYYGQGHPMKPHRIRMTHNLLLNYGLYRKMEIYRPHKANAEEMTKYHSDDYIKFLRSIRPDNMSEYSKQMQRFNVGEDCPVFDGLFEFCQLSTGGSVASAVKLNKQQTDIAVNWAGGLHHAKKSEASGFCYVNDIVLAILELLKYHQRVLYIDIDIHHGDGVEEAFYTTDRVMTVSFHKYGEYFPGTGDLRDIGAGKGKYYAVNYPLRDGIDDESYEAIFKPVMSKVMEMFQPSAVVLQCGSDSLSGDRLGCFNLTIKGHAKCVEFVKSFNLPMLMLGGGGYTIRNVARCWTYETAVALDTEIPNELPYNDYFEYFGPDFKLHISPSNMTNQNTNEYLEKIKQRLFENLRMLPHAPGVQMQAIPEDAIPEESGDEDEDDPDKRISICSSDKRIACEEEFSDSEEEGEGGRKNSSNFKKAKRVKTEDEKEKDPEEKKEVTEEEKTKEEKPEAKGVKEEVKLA
Sequence of Human recombinant full length HDAC6 (Q9UBN7 whole entry): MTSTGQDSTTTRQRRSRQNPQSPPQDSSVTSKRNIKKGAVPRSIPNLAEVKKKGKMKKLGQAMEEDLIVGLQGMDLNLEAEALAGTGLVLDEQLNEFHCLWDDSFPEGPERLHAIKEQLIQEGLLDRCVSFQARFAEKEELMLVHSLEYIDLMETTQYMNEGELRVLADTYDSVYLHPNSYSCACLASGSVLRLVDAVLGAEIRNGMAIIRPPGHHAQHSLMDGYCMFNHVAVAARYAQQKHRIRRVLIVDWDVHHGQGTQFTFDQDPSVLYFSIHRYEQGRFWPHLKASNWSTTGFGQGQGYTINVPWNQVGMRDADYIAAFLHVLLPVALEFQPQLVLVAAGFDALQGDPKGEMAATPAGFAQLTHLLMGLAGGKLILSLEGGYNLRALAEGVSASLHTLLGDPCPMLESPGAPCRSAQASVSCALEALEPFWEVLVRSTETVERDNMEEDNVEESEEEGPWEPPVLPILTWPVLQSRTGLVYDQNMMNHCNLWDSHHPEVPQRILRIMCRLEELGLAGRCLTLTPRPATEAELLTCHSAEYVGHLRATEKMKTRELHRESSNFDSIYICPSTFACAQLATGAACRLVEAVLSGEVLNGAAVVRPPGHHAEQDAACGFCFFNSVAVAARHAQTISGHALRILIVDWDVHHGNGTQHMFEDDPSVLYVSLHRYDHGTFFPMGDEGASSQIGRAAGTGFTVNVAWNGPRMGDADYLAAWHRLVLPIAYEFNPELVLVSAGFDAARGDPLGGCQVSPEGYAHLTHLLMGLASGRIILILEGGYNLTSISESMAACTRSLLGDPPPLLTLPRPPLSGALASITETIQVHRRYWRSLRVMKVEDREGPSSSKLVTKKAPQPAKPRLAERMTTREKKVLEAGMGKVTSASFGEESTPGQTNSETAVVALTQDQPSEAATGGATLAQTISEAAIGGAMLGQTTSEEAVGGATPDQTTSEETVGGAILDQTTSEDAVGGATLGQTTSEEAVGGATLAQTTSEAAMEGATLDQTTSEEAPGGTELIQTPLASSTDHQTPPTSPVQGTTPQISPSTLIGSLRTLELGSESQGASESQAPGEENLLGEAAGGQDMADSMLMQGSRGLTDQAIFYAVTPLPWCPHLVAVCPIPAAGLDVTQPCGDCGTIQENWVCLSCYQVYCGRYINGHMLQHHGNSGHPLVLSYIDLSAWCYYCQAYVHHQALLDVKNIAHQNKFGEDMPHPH

SMILES	IC50 (Human recombinant HDAC4)	IC50 [1, 3]	IC50 [2]	IC50 [1]
O=C(Nc1ccccc1)c1ccc(-c2noc(C(F)(F)F)n2)cc1 [Example 35, N-phenyl-4-(5-(trifluoromethyl)-1,2,4-oxadiazol-3-yl)benzamide]	6.7 µM	> 10 µM	> 10 µM	
CC(C)NC(=O)c1ccc(-c2noc(C(F)(F)F)n2)cc1 [Example 20, N-isopropyl-4-(5-(trifluoromethyl)-1,2,4-oxadiazol-3-yl)benzamide]	1 µM	> 10 µM	> 10 µM	
CN1CCC(CNC(=O)c2ccc(-c3noc(C(F)(F)F)n3)cc2)CC1 [Example 49, N-((1-methylpiperidin-4-yl)methyl)-4-(5-(trifluoromethyl)-1,2,4-oxadiazol-3-yl)benzamide]	0.99 µM	> 10 µM	> 10 µM	
O=C(NCCCO)c1ccc(-c2noc(C(F)(F)F)n2)cc1 [Example 17, N-(3-hydroxyypropyl)-4-(5-(trifluoromethyl)-1,2,4-oxadiazol-3-yl)benzamide]	1.4 µM		> 10 µM	8.6 µM
CN(CCO)C(=O)c1ccc(-c2noc(C(F)(F)F)n2)cc1 [Example 15, N-(2-hydroxyethyl)-N-methyl-4-(5-(trifluoromethyl)-1,2,4-oxadiazol-3-yl)benzamide]	0.99 µM	> 10 µM	> 10 µM	
O=S(=O)(Nc1cccc(Cl)c1)c1ccc(-c2noc(C(F)(F)F)n2)cc1 [Example 107, N-(3-chlorophenyl)-4-(5-(trifluoromethyl)-1,2,4-oxadiazol-3-yl)benzenesulfonamide]	0.79 µM	0.46 µM	6.2 µM	
CCOC(=O)CNC(=O)Cc1ccc(-c2noc(C(F)(F)F)n2)cc1 [Example 8, Ethyl 2-(2-(4-(5-(trifluoromethyl)-1,2,4-oxadiazol-3-yl)phenyl)acetamido)acetate]	0.58 µM	7.6 µM	> 10 µM	
CNC(=O)c1ccc(-c2noc(C(F)(F)F)n2)cc1 [Example 2, N-Methyl-4-(5-(trifluoromethyl)-1,2,4-oxadiazol-3-yl)benzamide]	0.53 µM	3.2 µM	> 10 µM	
CON(C)C(=O)Cc1ccc(-c2noc(C(F)(F)F)n2)cc1 [Example 11, N-methoxy-N-methyl-2-(4-(5-(trifluoromethyl)-1,2,4-oxadiazol-3-yl)phenvyl)acetamide]	1.1 µM	8.9 µM	> 10 µM	
CC(C)[C@H](CN(C)C)NC(=O)c1ccc(-c2noc(C(F)(F)F)n2)cc1 [Example 84, (R)—N-(1-(dimethylamino)-3-methylbutan-2-yl)-4-(5-(trifluoromethyl)-1,2,4-oxadiazol-3-yl)benzamide]	0.49 µM	> 10 µM	> 10 µM	
CC(CO)NC(=O)c1ccc(-c2noc(C(F)(F)F)n2)cc1F (stereo not drawn) [Example 91, 2-fluoro-N-(1-hydroxyypropan-2-yl)-4-(5-(trifluoromethyl)-1,2,4-oxadiazol-3-yl)benzamide]	0.5 µM	5.1 µM	> 10 µM	
COCCNC(=O)c1ccc(-c2noc(C(F)(F)F)n2)cc1 [Example 16, N-(2-methoxyethyl)-4-(5-(trifluoromethyl)-1,2,4-oxadiazol-3-yl)benzamide]	1.4 µM	6.8 µM	> 10 µM	
CCCCNC(=O)Cc1ccc(-c2noc(C(F)(F)F)n2)cc1 [Example 6, N-butyl-2-(4-(5-(trifluoromethyl)-1,2,4-oxadiazol-3-yl)phenyl)acetamide]	0.63 µM	3.2 µM	> 10 µM	

Compounds with a lower IC50 (Human recombinant HDAC4), results first:

IC50 (Human recombinant HDAC4)	IC50 [1, 3]	IC50 [2]	SMILES	IC50 [1]
0.47 µM	> 10 µM	> 10 µM	O=C(NC1CCNC1)c1ccc(-c2noc(C(F)(F)F)n2)cc1 (stereo not drawn) [Example 80, N-(pyrrolidin-3-yl)-4-(5-(trifluoromethyl)-1,2,4-oxadiazol-3-yl)benzamide]	
0.026 µM	> 10 µM	> 10 µM	CC(CN(C)C)NC(=O)c1ccc(-c2noc(C(F)(F)F)n2)cc1 (stereo not drawn) [Example 53, N-(1-(dimethylamino)propan-2-yl)-4-(5-(trifluoromethyl)-1,2,4-oxadiazol-3-yl)benzamide]	
0.036 µM	> 10 µM	> 10 µM	CN(C)CC(C)(C)NC(=O)c1ccc(-c2noc(C(F)(F)F)n2)cc1 [Example 119, N-(1-(dimethylamino)-2-methylpropan-2-yl)-4-(5-(trifluoromethyl)-1,2,4-oxadiazol-3-yl)benzamide]	
0.012 µM	4.7 µM	> 10 µM	C[C@H](CN(C)C)NC(=O)c1ccc(-c2noc(C(F)(F)F)n2)cc1F [Example 88, (R)—N-(1-(dimethylamino)propan-2-yl)-2-fluoro-4-(5-(trifluoromethyl)-1,2,4-oxadiazol-3-yl)benzamide]	
0.29 µM	> 10 µM	> 10 µM	O=C(c1ccc(-c2noc(C(F)(F)F)n2)cc1)N1CCC(Cc2ccccc2)CC1 [Example 43, (4-benzylpiperidin-1-yl)(4-(5-(trifluoromethyl)-1,2,4-oxadiazol-3-yl)phenvyl)methanone]	
0.17 µM	5.3 µM	> 10 µM	Cc1cc(NC(=O)c2ccc(-c3noc(C(F)(F)F)n3)cc2)cc(C)n1 [Example 68, N-(2,6-dimethylpyridin-4-yl)-4-(5-(trifluoromethyl)-1,2,4-oxadiazol-3-yl)benzamide]	
0.054 µM	2.1 µM	> 10 µM	O=C(Nc1ccncc1)c1ccc(-c2noc(C(F)(F)F)n2)cc1 [Example 47, N-(ppyridin-4-yl)-4-(5-(trifluoromethyl)-1,2,4-oxadiazol-3-yl)benzamide]	
0.026 µM	> 10 µM	> 10 µM	O=C(N[C@@H]1CCNC1)c1ccc(-c2noc(C(F)(F)F)n2)cc1 [Example 86, (R)—N-(pyyrrolidin-3-yl)-4-(5-(trifluoromethyl)-1,2,4-oxadiazol-3-yl)benzamide]	
0.09 µM	10 µM	> 10 µM	CC(CNC(=O)c1ccc(-c2noc(C(F)(F)F)n2)cc1)N(C)C (stereo not drawn) [Example 51, N-(2-(dimethylamino)propyl)-4-(5-(trifluoromethyl)-1,2,4-oxadiazol-3-yl)benzamide]	
0.47 µM	6.5 µM	> 10 µM	O=C(NC1CCC1)c1ccc(-c2noc(C(F)(F)F)n2)cc1 [Example 25, N-cyclobutyl-4-(5-(trifluoromethyl)-1,2,4-oxadiazol-3-yl)benzamide]	
0.36 µM	6.4 µM	> 10 µM	CN(C)CCNS(=O)(=O)c1ccc(-c2noc(C(F)(F)F)n2)cc1 [Example 98, N-(2-(dimethylamino)ethyl)-4-(5-(trifluoromethyl)-1,2,4-oxadiazol-3-yl)benzenesulfonamide]	
0.085 µM	4 µM	> 6.8 µM	CN(C)C[C@@H](Cc1ccccc1)NC(=O)c1ccc(-c2noc(C(F)(F)F)n2)cc1 [Example 92, (R)—N-(1-(dimethylamino)-3-phenylpropan-2-yl)-4-(5-(trifluoromethyl)-1,2,4-oxadiazol-3-yl)benzamide]	
0.11 µM	1.5 µM	6.7 µM	CN(C)C[C@H](Cc1ccccc1)NC(=O)c1ccc(-c2noc(C(F)(F)F)n2)cc1F [Example 117, (S)—N-(1-(dimethylamino)-3-phenylpropan-2-yl)-2-fluoro-4-(5-(trifluoromethyl)-1,2,4-oxadiazol-3-yl)benzamide]	
0.01 µM	7.5 µM	6.55 µM	C[C@H](CN1CCCCC1)NC(=O)c1ccc(-c2noc(C(F)(F)F)n2)cc1 [Example 131, (R)—N-(1-(piperidin-1-yl)propan-2-yl)-4-(5-(trifluoromethyl)-1,2,4-oxadiazol-3-yl)benzamide]	
0.34 µM	> 10 µM	> 10 µM	CN(C)CCN(C)C(=O)c1ccc(-c2noc(C(F)(F)F)n2)cc1 [Example 37, N-(2-(dimethylamino)ethyl)-N-methyl-4-(5-(trifluoromethyl)-1,2,4-oxadiazol-3-yl)benzamide]	
0.044 µM	> 10 µM	> 10 µM	CCN(CC)C[C@H](C)NC(=O)c1ccc(-c2noc(C(F)(F)F)n2)cc1F [Example 127, (S)—N-(1-(diethylamino)propan-2-yl)-2-fluoro-4-(5-(trifluoromethyl)-1,2,4-oxadiazol-3-yl)benzamide]	
0.04 µM	3.4 µM	6.1 µM	CNCCNC(=O)c1ccc(-c2noc(C(F)(F)F)n2)cc1 [Example 157, N-(2-(methylamino)ethyl)-4-(5-(trifluoromethyl)-1,2,4-oxadiazol-3-yl)benzamide]	
0.0012 µM	3.3 µM	5.8 µM	CCCN(C)C[C@@H](C)NC(=O)c1ccc(-c2noc(C(F)(F)F)n2)cc1F [Example 143, (R)-2-fluoro-N-(1-(methyl(propyl)amino)propan-2-yl)-4-(5-(trifluoromethyl)-1,2,4-oxadiazol-3-yl)benzamide]	

From US9056843B2, “Trifluoromethyl-oxadiazole derivatives and their use in the treatment of disease” (NOVARTIS AG, priority 2011, dated 2015)
